Experimental data reported in paper PMC6958387, “Biological Evaluation of Arylsemicarbazone Derivatives as Potential Anticancer Agents” (Pharmaceuticals, 2019).

How the values were obtained:
[1] = tested on: HEp-2; assay: MTT cytotoxicity, 72 h; type: cell-based, human
Experimental: (§1) The cytotoxicity assessment was performed against three human cancer cell lines in suspension (K562, HL-60 and MOLT-4) and four adhered (HEp-2, NCI-H292, HT-29 and MCF-7).
(§2) The cells were obtained from the Cell Bank of Rio de Janeiro and maintained in the Laboratory of Cell Culture of the Department of Antibiotics of the Federal University of Pernambuco. The lines K562 (myeloblastic leukaemia), HL-60 (promyelocytic leukemia) and MOLT-4 (lymphoblastic leukemia) were cultured in RPMI 1640 medium and the lines HEp-2 (larynx carcinoma), NCI-H292 (lung carcinoma), HT-29 (colon adenocarcinoma) and MCF-7 (breast adenocarcinoma) were cultured in DMEM medium, supplemented with 10% fetal bovine serum, 2 mM glutamine, 100 U/mL penicillin and 100 μg/mL streptomycin (Gibco™ Life Technologies), at 37 °C and 5% CO2.
(§3) The evaluation of the cytotoxicity of the compounds was performed by the method of 3-(4,5-dimethyl-2-thiazolyl)-2,5-diphenyl-2H-tetrazolium bromide (MTT) (Sigma Aldrich Co., St. Louis, MO, USA). To perform the assay the cells were seeded in 96-well plates at the following concentrations: HL-60 and K562 (0.3 × 10^6 cells/mL); MOLT-4 and PBMC (10^6 cells/mL); NCI-H292, HT-29, HEp-2 e MCF-7 (10^5 cells/mL). Briefly, the compounds previously dissolved in DMSO (dimethylsulfoxide, Vetec, São Paulo, Brazil), were diluted in medium and added to each well at the desired concentrations. For the calculation of the concentration that inhibits 50% of cell growth (IC50) the compounds were serially diluted to obtain the final concentrations between 0.19–25 μg/mL. Doxorubicin was used as the standard in the concentration range between (0.078–10 μg/mL). After 72 h of contact of the cells with the compounds, it was added to each well 25 μL of MTT solution (5 mg/mL). Plates were left for another 3 h in incubator at 37 °C and at the end of that period the supernatant was aspirated. To perform the reading, 100 μL of DMSO was added in each well for the dissolution of the formazan crystals. The amount of formazan was measured by reading the plate at 560 nm absorbance. The IC50 was calculated from the nonlinear regression in the Prisma 7.0 software (GraphPad, San Diego, CA, USA). Each sample was tested in triplicate in three independent experiments.

[2] = tested on: HL-60; assay: MTT cytotoxicity, 72 h; type: cell-based, human; conditions: MTT, 72 h of incubation
Experimental: as §1, §2, §3

[3] = tested on: HT-29; assay: MTT cytotoxicity, 72 h; type: cell-based, human
Experimental: as §1, §2, §3

[4] = tested on: K562; assay: MTT cytotoxicity, 72 h; type: cell-based, human
Experimental: as §1, §2, §3

[5] = tested on: MCF-7; assay: MTT cytotoxicity, 72 h; type: cell-based, human
Experimental: as §1, §2, §3

[6] = tested on: MOLT-4; assay: MTT cytotoxicity, 72 h; type: cell-based, human
Experimental: as §1, §2, §3

[7] = tested on: NCI-H292; assay: MTT cytotoxicity, 72 h; type: cell-based, human
Experimental: as §1, §2, §3

[8] = tested on: Peripheral Blood Mononuclear Cells (PBMCs); assay: MTT cytotoxicity in normal cells, 72 h; type: cell-based, human; conditions: 72 h of incubation
Experimental: In order to evaluate the cytotoxic potential in normal cells, all the derivatives were tested against Peripheral Blood Mononuclear Cells (PBMCs) and the most promising compounds were again compounds 3c and 4a, which offered more selectivity against the cancer cells.
Mononuclear cells were obtained from the peripheral blood of healthy volunteers by heparin tube collection and isolated by Ficoll-Histopaque gradient centrifugation. After centrifugation, the cells were harvested, washed and resuspended in RPMI 1640 medium supplemented with 20% fetal bovine serum, 2 mM glutamine, 100 U/mL penicillin and 100 μg/mL streptomycin (Gibco™ Life Technologies, Waltham, MA, USA). The phytohemagglutinin mitogen 2% was also added into the culture medium. After that, using the neubauer chamber, the cells were counted and plated in a 96-well plate at a concentration of 10^6 cells/mL and then were maintained for overnight under incubation at 37 °C and 5% CO2 [65].
as §3

[9] = biological target: CDK2/CyclinA (Homo sapiens, UniProt P24941); assay: Kinase inhibition assay (ADP-Glo); type: biochemical; conditions: 10 µM ATP
Experimental: HsCDK2/CyclinA (human, cyclin-dependent kinase-2, kindly provided by Dr. A. Echalier-Glazer, Leicester, UK) was assayed in buffer A with 0.8 µg/µL of histone H1 as substrate.

[10] = biological target: T1, CDK5/p25 (Homo sapiens, UniProt Q00535); assay: Kinase inhibition assay (ADP-Glo); type: biochemical; conditions: 10 µM ATP
T1 construct: made in house; host or cells: bacteria
T1 sequence (Q00535 whole entry): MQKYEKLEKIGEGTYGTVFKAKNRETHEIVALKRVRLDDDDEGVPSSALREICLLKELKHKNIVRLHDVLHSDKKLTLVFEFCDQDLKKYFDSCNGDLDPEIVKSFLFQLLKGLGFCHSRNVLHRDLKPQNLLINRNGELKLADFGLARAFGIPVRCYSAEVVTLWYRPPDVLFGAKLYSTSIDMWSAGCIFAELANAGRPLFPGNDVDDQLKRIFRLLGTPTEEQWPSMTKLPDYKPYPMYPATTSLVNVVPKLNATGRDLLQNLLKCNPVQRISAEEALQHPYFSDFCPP
T1 sequence (Q15078 99-307 partner limits assumed): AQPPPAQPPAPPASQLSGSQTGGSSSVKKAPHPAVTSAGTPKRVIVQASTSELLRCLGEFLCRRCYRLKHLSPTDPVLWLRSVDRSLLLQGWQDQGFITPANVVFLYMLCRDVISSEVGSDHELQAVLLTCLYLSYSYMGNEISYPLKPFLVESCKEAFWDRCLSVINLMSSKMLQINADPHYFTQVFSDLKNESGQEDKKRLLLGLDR
Experimental: HsCDK5/p25 (human, recombinant, expressed in bacteria) was assayed in buffer A, with 0.8 µg/µL of histone H1 as substrate.

[11] = biological target: T2, HASPIN (Homo sapiens, UniProt Q8TF76); assay: Kinase inhibition assay (ADP-Glo); type: biochemical; conditions: 10 µM ATP
T2 construct: kinase domain, amino acids 470 to 798; made in house; host or cells: bacteria
T2 sequence (Q8TF76 470-798): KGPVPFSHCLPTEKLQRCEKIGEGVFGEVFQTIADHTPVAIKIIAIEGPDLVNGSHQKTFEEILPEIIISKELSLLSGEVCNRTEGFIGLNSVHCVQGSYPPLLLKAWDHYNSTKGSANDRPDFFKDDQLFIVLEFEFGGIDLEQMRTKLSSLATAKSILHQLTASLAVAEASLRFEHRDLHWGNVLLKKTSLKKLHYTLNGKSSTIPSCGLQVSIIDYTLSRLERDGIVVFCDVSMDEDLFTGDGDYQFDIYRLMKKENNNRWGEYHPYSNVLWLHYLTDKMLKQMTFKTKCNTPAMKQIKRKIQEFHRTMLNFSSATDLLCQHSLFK
Experimental: HsHASPIN (human, kinase domain, amino acids 470 to 798, recombinant, expressed in bacteria) was assayed in buffer A with 0.007 µg/µL of Histone H3 (1-21) peptide ([…]) as substrate;

[12] = biological target: T3, PIM1 (Homo sapiens, UniProt P11309); assay: Kinase inhibition assay (ADP-Glo); type: biochemical; conditions: 10 µM ATP
T3 construct: made in house; host or cells: bacteria
T3 sequence (P11309 whole entry): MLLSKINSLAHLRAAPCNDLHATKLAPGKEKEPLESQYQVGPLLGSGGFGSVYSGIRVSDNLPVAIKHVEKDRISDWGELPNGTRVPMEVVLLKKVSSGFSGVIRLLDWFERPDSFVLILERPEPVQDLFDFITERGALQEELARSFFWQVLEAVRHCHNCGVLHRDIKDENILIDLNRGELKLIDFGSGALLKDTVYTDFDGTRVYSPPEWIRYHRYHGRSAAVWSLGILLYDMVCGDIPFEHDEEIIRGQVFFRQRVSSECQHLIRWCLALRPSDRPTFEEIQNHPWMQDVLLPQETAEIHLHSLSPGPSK
Experimental: HsPIM1 (human proto-oncogene, recombinant, expressed in bacteria) was assayed in buffer B with 0.8 µg/µL of histone H1 (Sigma #H5505) as substrate.

[13] = biological target: T4, CLK1 (Mus musculus, UniProt P22518); assay: Kinase inhibition assay (ADP-Glo); type: biochemical; conditions: 10 µM ATP
T4 construct: made in house; host or cells: bacteria
T4 sequence (P22518 whole entry): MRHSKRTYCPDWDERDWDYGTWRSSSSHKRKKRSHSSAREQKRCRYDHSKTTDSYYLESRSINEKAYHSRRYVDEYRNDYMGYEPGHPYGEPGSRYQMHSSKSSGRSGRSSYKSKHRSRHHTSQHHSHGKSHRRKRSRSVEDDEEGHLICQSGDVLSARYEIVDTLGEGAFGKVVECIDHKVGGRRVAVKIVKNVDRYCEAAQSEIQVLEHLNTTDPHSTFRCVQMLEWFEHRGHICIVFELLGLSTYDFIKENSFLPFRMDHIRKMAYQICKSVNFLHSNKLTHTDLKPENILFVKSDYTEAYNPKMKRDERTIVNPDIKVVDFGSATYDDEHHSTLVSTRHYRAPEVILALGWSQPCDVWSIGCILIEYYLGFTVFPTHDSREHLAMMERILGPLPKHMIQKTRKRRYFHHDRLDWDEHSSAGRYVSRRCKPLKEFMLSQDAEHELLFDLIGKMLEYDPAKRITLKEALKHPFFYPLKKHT
Experimental: MmCLK1 (from Mus musculus, recombinant, expressed in bacteria) was assayed in buffer A with 0.027μg/µL of the following peptide: GRSRSRSRSRSR as substrate.

[14] = biological target: T5, DYRK1A (Rattus norvegicus, UniProt Q63470); assay: Kinase inhibition assay (ADP-Glo); type: biochemical; conditions: 10 µM ATP
T5 construct: amino acids 1 to 499 including the kinase domain; made in house; host or cells: bacteria
Experimental: RnDYRK1A (Rattus norvegicus, amino acids 1 to 499 including the kinase domain, recombinant, expressed in bacteria, DNA vector kindly provided by Dr. W. Becker, Aachen, Germany) was assayed in buffer A with 0.033 μg/µL of the following peptide: KKISGRLSPIMTEQ as substrate.

[15] = biological target: CK1δ/ε; assay: Kinase inhibition assay (ADP-Glo); type: biochemical, Sus scrofa domesticus; conditions: 10 µM ATP
Experimental: SscCK1δ/ε (Sus scrofa domesticus, casein kinase 1δ/ε, affinity purified from porcine brain) was assayed in buffer A, with 0.022 μg/μL of the following peptide: RRKHAAIGSpAYSITA (“Sp” stands for phosphorylated serine) as CK1-specific substrate.

[16] = biological target: GSK3 α/β; assay: Kinase inhibition assay (ADP-Glo); type: biochemical, Sus scrofa domesticus; conditions: 10 µM ATP
Experimental: SscGSK-3α/β (Sus scrofa domesticus, glycogen synthase kinase-3, affinity purified from porcine brain) was assayed in buffer A with 0.010 µg/µL of GS-1 peptide, a GSK-3-selective substrate ([…]pEDEEE, “Sp” stands for phosphorylated serine).

[17] = biological target: T6, AURKB (Homo sapiens, UniProt Q96GD4); assay: Kinase inhibition assay (ADP-Glo); type: biochemical; conditions: 10 µM ATP
T6 construct: purchased SignalChem A31-10G; host or cells: Sf9 insect cells (baculovirus)
T6 sequence (Q96GD4 whole entry): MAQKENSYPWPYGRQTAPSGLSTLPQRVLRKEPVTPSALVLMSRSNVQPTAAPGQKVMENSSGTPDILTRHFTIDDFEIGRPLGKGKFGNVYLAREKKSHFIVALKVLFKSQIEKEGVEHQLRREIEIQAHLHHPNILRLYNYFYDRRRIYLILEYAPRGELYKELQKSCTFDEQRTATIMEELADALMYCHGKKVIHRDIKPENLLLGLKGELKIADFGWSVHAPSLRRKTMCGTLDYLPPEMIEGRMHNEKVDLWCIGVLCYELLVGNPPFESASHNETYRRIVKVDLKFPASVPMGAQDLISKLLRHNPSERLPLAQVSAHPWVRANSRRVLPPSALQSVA

[18] = biological target: CDK9/CyclinT (Homo sapiens, UniProt P50750); assay: Kinase inhibition assay (ADP-Glo)
Sequence of CDK9/CyclinT (P50750 whole entry): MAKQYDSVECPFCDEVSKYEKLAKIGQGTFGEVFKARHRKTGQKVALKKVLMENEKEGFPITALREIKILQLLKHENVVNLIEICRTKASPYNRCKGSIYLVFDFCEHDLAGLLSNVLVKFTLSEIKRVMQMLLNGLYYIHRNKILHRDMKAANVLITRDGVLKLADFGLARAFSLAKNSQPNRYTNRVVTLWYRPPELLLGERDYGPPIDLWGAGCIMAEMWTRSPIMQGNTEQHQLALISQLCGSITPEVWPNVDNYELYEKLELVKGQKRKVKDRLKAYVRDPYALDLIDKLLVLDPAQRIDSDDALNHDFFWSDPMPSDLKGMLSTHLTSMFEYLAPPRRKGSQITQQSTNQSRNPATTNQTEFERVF
Sequence of CDK9/CyclinT (O60563 whole entry partner): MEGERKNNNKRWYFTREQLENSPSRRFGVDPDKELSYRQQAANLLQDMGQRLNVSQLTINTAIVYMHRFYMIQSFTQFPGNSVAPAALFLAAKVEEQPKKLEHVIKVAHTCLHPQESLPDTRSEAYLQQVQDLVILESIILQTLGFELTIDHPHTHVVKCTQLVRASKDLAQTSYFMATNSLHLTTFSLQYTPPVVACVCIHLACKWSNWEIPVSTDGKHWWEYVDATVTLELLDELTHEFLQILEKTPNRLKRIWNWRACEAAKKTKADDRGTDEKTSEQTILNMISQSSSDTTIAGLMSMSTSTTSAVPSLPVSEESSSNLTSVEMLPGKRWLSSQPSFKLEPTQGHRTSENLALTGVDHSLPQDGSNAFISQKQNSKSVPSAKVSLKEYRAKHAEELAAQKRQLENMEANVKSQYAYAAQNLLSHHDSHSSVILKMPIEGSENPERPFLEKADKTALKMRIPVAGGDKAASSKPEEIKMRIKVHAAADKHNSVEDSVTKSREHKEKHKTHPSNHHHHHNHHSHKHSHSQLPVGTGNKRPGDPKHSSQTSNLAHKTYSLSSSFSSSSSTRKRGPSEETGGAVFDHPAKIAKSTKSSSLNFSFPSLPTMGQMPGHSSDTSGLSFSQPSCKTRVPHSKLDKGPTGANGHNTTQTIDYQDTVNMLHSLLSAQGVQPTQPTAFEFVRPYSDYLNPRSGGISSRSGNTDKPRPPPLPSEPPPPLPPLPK
Experimental: The protein kinases studied were: CDK2/CyclinA, CDK5/p25, CDK9/CyclinT (cyclin-dependent kinases), HASPIN (haploid germ cell-specific nuclear protein kinase), PIM1 (PIM family kinase 1), CLK1 (cdc2-like kinase 1), DYRK1A (dual-specificity tyrosine phosphorylation regulated kinase), CK1δ/ε (casein kinase 1 isoforms), GSK3α/β (glycogen synthase kinase 3) and AURKB (aurora kinase B). Initially, all compounds were first tested at 10 μM. […] Compounds displaying more than 50% inhibition at 10 μM were next tested over a wide range of concentrations (usually 0.01–10 μM), and IC50 values were determined from the dose-response curves (Sigma-Plot).
Kinase activities were assayed in appropriate kinase buffer, with either protein or peptide as substrate in the presence of 10 µM ATP in a final volume of 6 µL using the ADP-Glo^TM assay kit (Promega, Madison, WI, USA, as described in Zegzouti et al. [66]). Controls were performed with appropriate dilutions of dimethylsulfoxide (solvent of the tested compounds).
The buffers used for kinase assays are the following: (A) 10 mM MgCl2, 1 mM EGTA, 1 mM DTT, 25 mM Tris-HCl pH 7.5, 50 µg/mL heparin; (B) 25 mM MOPS, pH 7.2, 12.5 mM -glycerolphosphate, 25 mM MgCl2, 5 mM EGTA, 2 mM EDTA, 0.25 mM DTT.

[19] = Homo sapiens, HEp-2, 72 h of incubation
[20] = Homo sapiens, HT-29, 72 h of incubation
[21] = Homo sapiens, K562, 72 h of incubation
[22] = Homo sapiens, MCF7, 72 h of incubation
[23] = Homo sapiens, MOLT-4, 72 h of incubation
[24] = Homo sapiens, NCI-H292, 72 h of incubation

Molecule | IC50 [1, 19] [µM] | IC50 ([2]; Homo sapiens, HL-60) [µM] | IC50 [3, 20] [µM] | IC50 [4, 21] [µM] | IC50 [5, 22] [µM] | IC50 [6, 23] [µM] | IC50 [7, 24] [µM] | IC50 ([8]; Homo sapiens, PBMC) [µM] | melting point [°C] | IC50 [10] [µM] | IC50 [11] [µM] | IC50 [12] [µM] | IC50 [16] [µM] | IC50 [18] [µM] | further results
2,6-Pyridinedicarboxaldehyde Semicarbazone [Compound 3j] |  |  |  |  |  |  |  |  |  |  |  |  |  |  | IC50 ([1]; 72 h of incubation): > 100 µM; IC50 [2]: > 100 µM; IC50 ([3]; 72 h of incubation): > 100 µM; IC50 ([4]; 72 h of incubation): > 100 µM; IC50 ([5]; 72 h of incubation): > 100 µM; IC50 ([6]; 72 h of incubation): > 100 µM; IC50 ([7]; 72 h of incubation): > 100 µM; IC50 [8]: > 100 µM
COc1ccc(C=NNC(N)=O)cc1 [Compound 3a, 4-Methoxybenzaldehyde Semicarbazone] | > 100 | > 100 | > 100 | > 100 | > 100 | > 100 | > 100 | > 100 | 210 to 212 |  |  |  |  |  | 
COc1cc(C=NNC(N)=O)ccc1O [Compound 3b, 4-Hydroxy-3-methoxybenzaldehyde Semicarbazone] | > 100 | > 100 | > 100 | > 100 | > 100 | > 100 | > 100 | > 100 | 237 to 239 |  |  |  |  |  | 
NC(=O)NN=Cc1ccc(Br)cc1 [Compound 3d, 4-Bromobenzaldehyde Semicarbazone] | 23.1 ± 0.8 | 16.9 ± 1.1 | > 100 | 25.2 ± 2.43 | 33.5 ± 0.75 | 37.2 ± 0.84 | > 100 | 46.3 ± 0.97 | 237 to 239 | > 10 | > 10 | > 10 | > 10 | > 10 | IC50 [9]: > 10 µM; IC50 [13]: > 10 µM; IC50 [14]: > 10 µM; IC50 [15]: > 10 µM; IC50 [17]: > 10 µM
NC(=O)NN=Cc1ccc(Cl)cc1 [Compound 3e, 4-Chlorobenzaldehyde Semicarbazone] | 22.3 ± 0.4 | > 100 | > 100 | 58.7 ± 0.97 | 33.9 ± 0.8 | > 100 | > 100 | > 100 | 235 to 236 | > 10 | > 10 | > 10 | > 10 | > 10 | IC50 [9]: > 10 µM; IC50 [13]: > 10 µM; IC50 [14]: > 10 µM; IC50 [15]: > 10 µM; IC50 [17]: > 10 µM
NC(=O)NN=Cc1ccncc1 [Compound 3i, 4-Pyridinecarboxaldehyde Semicarbazone] | > 100 | > 100 | > 100 | > 100 | > 100 | > 100 | > 100 | > 100 | 225 to 226 |  |  |  |  |  | 
NC(=O)NN=Cc1cccs1 [Compound 3k, 2-Thiophenecarboxaldehyde Semicarbazone] | > 100 | > 100 | > 100 | > 100 | > 100 | > 100 | > 100 | > 100 | 227 to 230 |  |  |  |  |  | 
NC(=O)N/N=C/c1ccc([N+](=O)[O-])o1 [Compound 3m, 5-Nitro-2-furfuraldehyde Semicarbazone] |  | 24.33 ± 0.16 | 28.4 ± 8.56 |  | 8.56 ± 0.01 |  | 31.9 ± 0.07 | > 100 |  | > 10 | > 10 | > 10 | > 10 | > 10 | 
